Experiment [1] has as its target T1, type 1 cholecystokinin receptor (CCK1R) (UniProt P32238).
T1 sequence: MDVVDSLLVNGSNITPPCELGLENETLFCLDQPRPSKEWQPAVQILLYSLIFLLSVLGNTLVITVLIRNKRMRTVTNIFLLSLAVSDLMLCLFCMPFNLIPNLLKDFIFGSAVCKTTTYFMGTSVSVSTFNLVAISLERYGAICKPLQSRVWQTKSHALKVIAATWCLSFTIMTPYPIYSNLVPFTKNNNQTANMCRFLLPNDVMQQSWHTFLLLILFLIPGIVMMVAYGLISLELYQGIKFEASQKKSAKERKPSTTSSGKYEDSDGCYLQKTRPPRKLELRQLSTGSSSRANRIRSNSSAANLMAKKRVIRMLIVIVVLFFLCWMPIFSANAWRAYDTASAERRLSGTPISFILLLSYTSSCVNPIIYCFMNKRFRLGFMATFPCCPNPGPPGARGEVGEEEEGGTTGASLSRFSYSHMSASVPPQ

Experiment [2] addresses T2, CCK1R (Homo sapiens, UniProt P32238).
T2 sequence (P32238 1-428): T1 sequence
Briefly: Intracellular calcium assay (Fura-8-AM) in CHO-CCK1R cells. It is filed as cell-based. Set-up: expressed in transfected cells. The following applies: CHO-CCK1R cells, agonist alone; mean ± SEM. How it is done:
Biological activity was quantified in the CHO cell lines described above using intracellular calcium assays that were performed, as previously described, using Fura-8-AM (AAT Bioquest, Pleasonton, CA, USA). Full agonist dose–response curves were performed along with determination of maximal responses to 0.1 mM ATP, targeting an endogenous receptor present on the parental cells. Concentration–response curves of peak intracellular calcium responses were analyzed and plotted as percentages of maximal responses using non-linear regression analysis in Prism 9.1 (GraphPad).

The target in experiment [3] is T3, vasopressin-2 receptor (AVP2R) (Homo sapiens, UniProt P30518).
T3 construct: expressed in transfected cells; host or cells: CHO-K1 (PAM format); HEK-293 (agonist format)
T3 sequence (P30518 whole entry): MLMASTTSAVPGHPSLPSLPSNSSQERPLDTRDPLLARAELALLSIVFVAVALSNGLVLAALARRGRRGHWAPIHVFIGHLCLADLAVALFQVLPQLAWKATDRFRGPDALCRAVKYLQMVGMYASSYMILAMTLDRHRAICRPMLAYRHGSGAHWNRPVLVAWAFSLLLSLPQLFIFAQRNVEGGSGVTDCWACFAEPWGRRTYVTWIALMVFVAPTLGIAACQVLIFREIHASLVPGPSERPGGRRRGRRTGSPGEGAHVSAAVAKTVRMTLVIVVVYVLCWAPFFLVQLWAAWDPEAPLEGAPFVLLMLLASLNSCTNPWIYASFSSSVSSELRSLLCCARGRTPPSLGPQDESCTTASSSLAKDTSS
Briefly: AVP2R cAMP HTRF accumulation assay. It is filed as cell-based. To be noted: CHO-K1 AVP2R cells. The procedure, abridged: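 CHO-K1 AVP2R cells (PAM format) or HEK-293 AVP2R cells (agonist format) incubated 30 min at room temperature with compounds and vasopressin in HBSS with 5 mM HEPES, 0.5 mM IBMX, 0.075% BSA. cAMP read by HTRF after 30 min; 16-point 2-fold dose–response in duplicate.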

Experiment [4] deals with T2, CCK1R. Briefly: IP-One accumulation TR-FRET assay, PAM format, HEK-293 CCK1R cells. Also noted: expressed in transfected cells; host or cells: HEK-293. It is filed as cell-based. The procedure, abridged:
(§1)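 HEK-293 cells overexpressing CCK1R were plated overnight, then given compounds (top 50 µM, 16-point 2-fold) for 30 min at 37 °C. CCK stimulator with 50 mM LiCl (PAM format) or DMSO (agonist format) followed for 1 h. IP-One was read by TR-FRET; activity score = CCK-normalized Emax × pEC50.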

The target in experiment [5] is T2, CCK1R. Briefly: IP-One accumulation TR-FRET assay, agonist format, HEK-293 CCK1R cells. The format is cell-based. Also noted: expressed in transfected cells; host or cells: HEK-293. The procedure, abridged:
as §1

Non-standard residues stand in square brackets, D forms with d. Residues, ends and D or L forms follow the SMILES beside them. *: point of attachment. sY = N[C@@H](Cc1ccc(OS(=O)(=O)O)cc1)C(=O)O; OCH2CH2Ph = c1ccc(CCO*)cc1; Nle = CCCC[C@H](N)C(=O)O

For the molecule “D-Tyr-Gly-[(Nle^28,31)CCK-26-32]-phenethyl ester (peptide)”, in experiment [1], the pEC50 of intracellular calcium response (Fura-8-AM), CHO-CCK1R cells came out at 7.3; the pEC50 of intracellular calcium response (Fura-8-AM), CHO-CCK1R cells, with 10 µM hit 1 came out at 8; the pEC50 of intracellular calcium response (Fura-8-AM), CHO-CCK1R cells, with 10 µM hit 6 was 8.1.

Consider `CCCC[C@H](NC(=O)[C@H](Cc1ccc(OS(=O)(=O)O)cc1)NC(=O)[C@H](CC(=O)O)NC(=O)CNC(=O)[C@H](N)Cc1ccc(O)cc1)C(=O)NCC(=O)N[C@@H](Cc1c[nH]c2ccccc12)C(=O)N[C@@H](CCCC)C(=O)N[C@@H](CC(=O)O)C(=O)OCCc1ccccc1` [CCK-OPE, D-Tyr-Gly-[(Nle^28,31)CCK-26-32]-phenethyl ester, reference compound] (H-[dY]GD[sY][Nle]GW[Nle]D-OCH2CH2Ph; N-terminus assumed), for which, at CCK1R [2], the “pEC50 agonist-induced intracellular calcium response” value is on record as 7.3 ± 0.2.

On to `CCCCNc1ncnc2c1sc1nc(N3CCOCC3)c3c(c12)CCCC3` [CMP-48], for which the “AVP2R PAM (cAMP) Score (activity score = normalized Emax × pEC50)” value in experiment [3] (PAM format) came to 0. The Emax in experiment [3] (PAM format with vasopressin, original hits: agonist and PAM data combined, average ± SD) turned out to be 0%; on CCK1R [4] (HEK293, HEK-293 CCK1R cells, PAM format, relative to CCK control, average ± SD) it was 0%; at CCK1R [5] (HEK293, relative to CCK control, average ± SD, read-out: CCK1R Ago (IP-One) Emax), 0%. On CCK1R [4] (HEK-293 CCK1R cells, PAM format), the “CCK1R PAM (IP-One) Score (activity score = normalized Emax × pEC50)” value stood at 0. At CCK1R [4] (PAM and agonist formats), the “CCK1R IP-One activity (in words)” value is given as “None of these analogs showed any CCK1R activity”. In addition, at CCK1R [5], the “CCK1R Ago (IP-One) Score (activity score = normalized Emax × pEC50)” value was 0.

Consider KAPSGRMSIVKNLQNLDPSHRISDRDYMGWMDF [CCK-33], for which, in experiment [1], the pEC50 of intracellular calcium response (Fura-8-AM), CHO-CCK1R cells is 9.6; the pEC50 of intracellular calcium response (Fura-8-AM), CHO-CCK1R cells, with 10 µM hit 1 was determined as 10.7; the pEC50 of intracellular calcium response (Fura-8-AM), CHO-CCK1R cells, with 10 µM hit 6 was determined as 10.7.

The values above are taken from PMC9964746, “Mechanism of Action and Structure–Activity Relationships of Tetracyclic Small Molecules Acting as Universal Positive Allosteric Modulators of the Cholecystokinin Receptor” (Membranes, 2023).
